From patent US12325697B2 (Nimbus Clio, Inc., priority 2021, dated 2025)
Read-outs that look alike come from different tables or passages of the source.

Key:
[1] = target: Recombinant human Cbl-b (aa 36-427) (Homo sapiens (Human), UniProt Q13191); test: Cbl-b Biochemical Assay (TR-FRET); conditions: read-out: TR-FRET hCbl-b IC50
Method in brief: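 IC50 from 4-parameter fit of % inhibition (DMSO max, reference-inhibitor min), duplicate ten-point series. Compound preincubated with 6 nM Cbl-b, then Src-Zap70 (1-2.5 nM)/0.5 mM ATP reaction 60 min RT; EDTA quench with labelled UBE2D2-Ub and streptavidin-terbium, 60 min, HTRF at 520 nm.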

[2] = test system: Phospho-Zap70 (Y-319) in Jurkat wild-type (clone E6-1) cells; test: Jurkat pZAP70 HTRF Assay; type: cell-based; conditions: Homo sapiens
[3] = test system: Jurkat (clone E6-1) cells, NFAT luciferase reporter; test: Jurkat Reporter Assay (NFAT Luciferase); type: cell-based; conditions: Homo sapiens
[4] = anti-CD3 5 μg/ml, 3 hr, read-out: ZAP70 Jurkat EC50
[5] = anti-CD3 stimulation, 6 hr, read-out: Jurkat NFAT EC50

Recombinant human Cbl-b (aa 36-427), sequence (Q13191 36-427): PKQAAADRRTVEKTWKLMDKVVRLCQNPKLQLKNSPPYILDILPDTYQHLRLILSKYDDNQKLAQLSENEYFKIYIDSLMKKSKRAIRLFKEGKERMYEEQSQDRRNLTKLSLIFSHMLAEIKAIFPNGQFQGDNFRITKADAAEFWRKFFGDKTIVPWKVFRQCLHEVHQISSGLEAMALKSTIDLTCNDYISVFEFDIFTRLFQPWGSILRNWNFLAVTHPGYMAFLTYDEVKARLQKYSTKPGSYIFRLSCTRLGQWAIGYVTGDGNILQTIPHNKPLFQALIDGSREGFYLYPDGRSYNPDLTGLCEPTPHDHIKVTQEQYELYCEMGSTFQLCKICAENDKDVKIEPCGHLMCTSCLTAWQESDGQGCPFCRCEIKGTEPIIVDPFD

Row | Compound | IC50 [1] [µM] | EC50 [2, 4] [µM] | EC50 [3, 5] [µM] | EC50 ([2]; 3 h, read-out: ZAP70 Jurkat EC50 (μM)) [µM] | EC50 ([3]; 6 h, read-out: Jurkat NFAT EC50 (μM)) [µM]
1 | Cn1cnnc1-c1cc(F)ccc1-c1cc(C2CC2)nc(N2Cc3c(cccc3C(F)(F)F)C2=O)c1 [AND-2, 2-{6-Cyclopropyl-4-[4-fluoro-2-(4-methyl-1,2,4-triazol-3-yl)phenyl]pyridin-2-yl}-4-(trifluoromethyl)-3H-isoindol-1-one] | ≤ 0.2 | 1 to 10 | 0.2 to 1 | – | –
2 | CCNc1cc(-c2c(-c3nncn3C)cnn2C)cc(N2Cc3c(cc(CNCC4(O)CCC4)cc3C(F)(F)F)C2=O)n1 [ADJ-1, 2-[6-(Ethylamino)-4-[2-methyl-4-(4-methyl-1,2,4-triazol-3-yl)pyrazol-3-yl]pyridin-2-yl]-6-({[(1-hydroxycyclobutyl)methyl]amino}methyl)-4-(trifluoromethyl)-3H-isoindol-1-one] | ≤ 0.2 | < 0.2 | < 0.2 | – | –
3 | COCCNCc1ccc2c(c1)C(=O)N(c1cc(-c3ccc(C#N)cc3-c3nncn3C)cc(C3CC3)n1)C2 [AGO-2, 4-(2-Cyclopropyl-6-(6-(((2-methoxyethyl)amino)methyl)-1-oxoisoindolin-2-yl)pyridin-4-yl)-3-(4-methyl-4H-1,2,4-triazol-3-yl)benzonitrile] | ≤ 0.2 | < 0.2 | < 0.2 | – | –
4 | Cn1cnnc1-c1cc(F)ccc1-c1cccc(N2Cc3c(cc(CNCC4(O)CCC4)cc3C(F)(F)F)C2=O)c1 [AFN-3, 2-[4′-Fluoro-2′-(4-methyl-1,2,4-triazol-3-yl)-[1,1′-biphenyl]-3-yl]-6-({[(1-hydroxycyclobutyl)methyl]amino}methyl)-4-(trifluoromethyl)-3H-isoindol-1-one] | ≤ 0.2 | < 0.2 | < 0.2 | – | –
5 | Cn1cnnc1-c1cc(F)ccc1-c1cccc(N2Cc3ccc(CNCC4(O)CCCC4)cc3C2=O)c1 [AHB-1, 2-(4′-Fluoro-2′-(4-methyl-4H-1,2,4-triazol-3-yl)-[1,1′-biphenyl]-3-yl)-6-((((1-hydroxycyclopentyl)methyl)amino)methyl) isoindolin-1-one] | ≤ 0.2 | < 0.2 | < 0.2 | – | –
6 | CCNc1cc(-c2ccc(F)cc2-c2nncn2C)cc(N2Cc3c(cc(CO[C@@H]4CCC[C@@H]4O)cc3C(F)(F)F)C2=O)n1 [AFZ-1, 2-[6-(Ethylamino)-4-[4-fluoro-2-(4-methyl-1,2,4-triazol-3-yl)phenyl]pyridin-2-yl]-6-({[(1R,2S)-2-hydroxycyclopentyl]oxy}methyl)-4-(trifluoromethyl)-3H-isoindol-1-one] | ≤ 0.2 | 0.2 to 1 | < 0.2 | – | –
7 | CCNc1cc(-c2ccc(F)cc2-c2nncn2C)cc(N2Cc3c(cc(COCC(C)(C)O)cc3C(F)(F)F)C2=O)n1 [AFG-1, 2-[6-(Ethylamino)-4-[4-fluoro-2-(4-methyl-1,2,4-triazol-3-yl)phenyl]pyridin-2-yl]-6-[(2-hydroxy-2-methylpropoxy)methyl]-4-(trifluoromethyl)-3H-isoindol-1-one] | ≤ 0.2 | 0.2 to 1 | < 0.2 | – | –
8 | CCNc1cc(-c2ccc(F)cc2-c2nncn2C)cc(N2Cc3c(cc(COCC4(N)CCC4)cc3C(F)(F)F)C2=O)n1 [AGS-2] | ≤ 0.2 | < 0.2 | < 0.2 | – | –
9 | Cn1cnnc1-c1cc(C#N)ccc1-c1cc(C2CC2)nc(N2Cc3ccc(CNCCOC(F)(F)F)cc3C2=O)c1 [AGT-3, 4-{2-Cyclopropyl-6-[1-oxo-6-({[2-(trifluoromethoxy)ethyl]amino}methyl)-3H-isoindol-2-yl]pyridin-4-yl}-3-(4-methyl-1,2,4-triazol-3-yl)benzonitrile] | ≤ 0.2 | < 0.2 | < 0.2 | – | –
10 | CCNc1cc(-c2ccc(C#N)cc2-c2nncn2C)cc(N2Cc3c(cc(COCC4(N)CCC4)cc3C(F)(F)F)C2=O)n1 [AGJ-2, 4-[2-(6-{[(1-aminocyclobutyl)methoxy]methyl}-1-oxo-4-(trifluoromethyl)-3H-isoindol-2-yl)-6-(ethylamino)pyridin-4-yl]-3-(4-methyl-1,2,4-triazol-3-yl)benzonitrile] | ≤ 0.2 | 1 to 10 | < 0.2 | – | –
11 | CC(C)c1cc(-c2ccc(F)cc2-c2nncn2C)cc(N2Cc3ccc(CNCC4(O)CCC4)cc3C2=O)n1 [AFX-1, 2-{4-[4-Fluoro-2-(4-methyl-1,2,4-triazol-3-yl)phenyl]-6-isopropylpyridin-2-yl}-6-({[(1-hydroxycyclobutyl)methyl]amino}methyl)-3H-isoindol-1-one] | ≤ 0.2 | < 0.2 | < 0.2 | – | –
12 | C[C@@H](NCC1(O)CCC1)c1cc2c(c(C(F)(F)F)c1)CN(c1cc(-c3ccccc3-c3nncn3C)cc(C3CC3)n1)C2=O (single isomer, unassigned) [AFU-1] | ≤ 0.2 | < 0.2 | < 0.2 | – | –
13 | CCNc1cc(-c2c(-c3nncn3C)cnn2C)cc(N2Cc3c(cc(CN(C)CC4(O)CCC4)cc3C(F)(F)F)C2=O)n1 [AEJ-3, 2-(6-(Ethylamino)-4-(1-methyl-4-(4-methyl-4H-1,2,4-triazol-3-yl)-1H-pyrazol-5-yl)pyridin-2-yl)-6-((((1-hydroxycyclobutyl)methyl)(methyl)amino)methyl)-4-(trifluoromethyl)isoindolin-1-one] | ≤ 0.2 | < 0.2 | < 0.2 | – | –
14 | Cn1cnnc1-c1cc(C#N)ccc1-c1cc(C2CC2)nc(N2Cc3ccc(CNCC4(O)CCC4)cc3C2=O)c1 [AFJ-1, 4-{2-Cyclopropyl-6-[6-({[(1-hydroxycyclobutyl)methyl]amino}methyl)-1-oxo-3H-isoindol-2-yl]pyridin-4-yl}-3-(4-methyl-1,2,4-triazol-3-yl)benzonitrile] | ≤ 0.2 | < 0.2 | < 0.2 | – | –
15 | Cn1cnnc1-c1cnn(C)c1-c1cc(C2CC2)nc(N2Cc3ccc(CNCC4(O)CCC4)cc3C2=O)c1 [AFI-1, 2-{6-Cyclopropyl-4-[2-methyl-4-(4-methyl-1,2,4-triazol-3-yl)pyrazol-3-yl]pyridin-2-yl}-6-({[(1-hydroxycyclobutyl)methyl]amino}methyl)-3H-isoindol-1-one] | ≤ 0.2 | < 0.2 | < 0.2 | – | –
16 | CCNc1cc(-c2ccc(F)cc2-c2nncn2C)cc(N2Cc3c(cc(COCCOC)cc3C(F)(F)F)C2=O)n1 | – | – | – | 0.2 to 1 | < 0.2
17 | Cn1cnnc1-c1cc(C#N)ccc1-c1cccc(N2Cc3c(cc(CN[C@@H]4CCC[C@@H]4O)cc3C(F)(F)F)C2=O)c1 [BE-3, 3′-(6-((((1R,2S)-2-Hydroxycyclopentyl)amino)methyl)-1-oxo-4-(trifluoromethyl)isoindolin-2-yl)-2-(4-methyl-4H-1,2,4-triazol-3-yl)-[1,1′-biphenyl]-4-carbonitrile] | ≤ 0.2 | – | < 0.2 | – | –
18 | Cn1cnnc1-c1ccccc1-c1cccc(N2Cc3c(cc(CO[C@@H]4CCC[C@@H]4O)cc3C(F)(F)F)C2=O)c1 [AV-3, 6-((((1R,2S)-2-Hydroxycyclopentyl)oxy)methyl)-2-(2′-(4-methyl-4H-1,2,4-triazol-3-yl)-[1,1′-biphenyl]-3-yl)-4-(trifluoromethyl)isoindolin-1-one] | 0.2 to 1 | – | 1 to 10 | – | –
19 | CCCn1cc(-c2nncn2C)c(-c2cc(NCC)nc(N3Cc4c(cccc4C(F)(F)F)C3=O)c2)n1 [AHD-9, 2-[6-(Ethylamino)-4-[4-(4-methyl-1,2,4-triazol-3-yl)-1-propylpyrazol-3-yl]pyridin-2-yl]-4-(trifluoromethyl)-3H-isoindol-1-one] | 10 to 50 | – | 10 to 50 | – | –
20 | Cn1cnnc1-c1cc(C#N)ccc1-c1cc(C2CC2)nc(N2Cc3c(cccc3C(F)(F)F)C2=O)c1 [AEG-3, 4-{2-Cyclopropyl-6-[1-oxo-4-(trifluoromethyl)-3H-isoindol-2-yl]pyridin-4-yl}-3-(4-methyl-1,2,4-triazol-3-yl)benzonitrile] | ≤ 0.2 | – | 0.2 to 1 | – | –
21 | Cn1cnnc1-c1ccc(C#N)cc1-c1cccc(N2Cc3c(cc(CO)cc3C(F)(F)F)C2=O)c1 [ADM-6, 3′-[6-(Hydroxymethyl)-1-oxo-4-(trifluoromethyl)-3H-isoindol-2-yl]-6-(4-methyl-1,2,4-triazol-3-yl)-[1,1′-biphenyl]-3-carbonitrile] | 0.2 to 1 | – | 10 to 50 | – | –
22 | C[C@@H](Cc1nncn1C)c1cc(NS(C)(=O)=O)nc(N2Cc3c(cccc3C(F)(F)F)C2=O)c1 [AHL-8, N-[4-[(2S)-1-(4-Methyl-1,2,4-triazol-3-yl)propan-2-yl]-6-[1-oxo-4-(trifluoromethyl)-3H-isoindol-2-yl]pyridin-2-yl]methanesulfonamide] | 10 to 50 | – | 10 to 50 | – | –
23 | Cn1cnnc1-c1cc(C#N)ccc1-c1cc(C2CC2)nc(N2Cc3c(cc(COCCO)cc3C(F)(F)F)C2=O)c1 [AHF-4, 4-(2-Cyclopropyl-6-{6-[(2-hydroxyethoxy)methyl]-1-oxo-4-(trifluoromethyl)-3H-isoindol-2-yl}pyridin-4-yl)-3-(4-methyl-1,2,4-triazol-3-yl)benzonitrile] | ≤ 0.2 | – | < 0.2 | – | –
24 | Cn1cnnc1-c1ccccc1-c1cc(N2Cc3c(cc(CO)cc3C(F)(F)F)C2=O)nc(N2Cc3c(cc(CO)cc3C(F)(F)F)C2=O)c1 [ACX-2, 6-(Hydroxymethyl)-2-{6-[6-(hydroxymethyl)-1-oxo-4-(trifluoromethyl)-3H-isoindol-2-yl]-4-[2-(4-methyl-1,2,4-triazol-3-yl)phenyl]pyridin-2-yl}-4-(trifluoromethyl)-3H-isoindol-1-one] | 10 to 50 | – | 10 to 50 | – | –
